Measured values published in PMC12435445, “Crown Ether–Peptide Rotaxanes” (Angewandte Chemie (International Ed. in English), 2025).

Assay: Stability of rotaxane positional isomers to heating or standing, followed by 1H NMR
Assay type: physicochemical
Protocol: The properties of the 1:0:0‐, 0:1:0‐ and 0:0:1‐diastereomers of 24C8⊂16 were probed using a range of spectroscopic and spectrometric techniques. No change in the ^1H NMR spectra of the rotaxane positional isomers occurred upon heating at 70 °C in DMSO‐d6 for 2 h, or after prolonged periods at room temperature. […] When compared to the noninterlocked thread peptide 16; significant downfield shifts are observed for Hb in 1:0:0–24C8⊂16 (ΔδHb = +0.45 ppm), Hh in 0:1:0–24C8⊂16 (ΔδHh = +0.30 ppm) and Hq in 0:0:1–24C8⊂16 (ΔδHq = +0.21 ppm). The protons associated with the encapsulated glycine residue are also downshifted (protons Hf, Ho and Hu, in 1:0:0–24C8⊂16, 0:1:0–24C8⊂16 and 0:0:1–24C8⊂16, respectively). Substantial upfield shifts for the amide protons Ha, He, Hg, Hn (ΔδH = −0.78, −0.43, −0.40, and −0.49 ppm) in 1:0:0–24C8⊂16, Hg, Hn, Hp, and Ht in 0:1:0–24C8⊂16 (ΔδH = −0.26, −0.48, −0.45, and −0.44 ppm), and Hp, Ht and Hv (ΔδH = −0.33, −0.44, and −0.63 ppm) in 0:0:1–24C8⊂16 indicate that the crown ether also interacts with the amide group of the C‐adjacent residue. As in the tripeptide rotaxanes 24C8⊂4–14, the diastereotopic splitting for the encapsulated glycine methylene becomes more pronounced, as do the protons of the leucine residue (Hd), within 1:0:0–24C8⊂16. The presence of the macrocycle reduces the rotation of nearby amides within the compartment it occupies.

With “Boc‐Leu‐Gly‐Trp‐Gly‐Tyr(TIPS)‐Gly‐Phe‐OMe [1:0:0–24C8⊂16, 24C8 crown ether–heptapeptide [2]rotaxane, ring on left‐hand glycine between Boc‐Leu and Trp of axle 16]” the “change in the 1H NMR spectra (interconversion of positional isomers or dethreading of macrocycle)” value (heating at 70 °C in DMSO-d6 for 2 h) was “No change” and the “change in the 1H NMR spectra (interconversion of positional isomers or dethreading of macrocycle)” value (prolonged periods at room temperature) was “No change”.
